Test results: US20240101563A1, “NOVEL COMPOUNDS” (AC Immune SA, priority 2022, published 2024)
Counter-ions that a name gives are not always drawn.

Test system: NLRP3 inflammasome pathway
Assay: NLRP3 inflammasome pathway activation assay, MSU stimulation, IL-1β HTRF
Type: cell-based
Conditions: Homo sapiens, 3 h, Table 7; PMA-differentiated, LPS-primed cells; MSU 200 μg/mL for 3 h; IL-1β release; read-out: IC50 Human monocyte-like cells MSU
Description: The following assays were used to determine the inhibitory activity of test compounds on the NLRP3 inflammasome pathway using common stimuli Nigericin (Invivogen) or monosodium urate crystals (MSU) (Invivogen).
Human monocyte-like cells were cultured in RPMI-1640 Glutamax medium supplemented with 10% heat inactivated FBS (Fetal Bovine Serum) and 50 U/mL penicillin-streptomycin (Life Technologies).
Human monocyte-like cells were seeded at 25000 per well in a 384-well plate and were differentiated overnight into macrophages with 10 ng/mL PMA (Phorbol Myristate Acetate). The following day, medium containing 10 ng/mL LPS (Lipopolysaccharide) was added. After 3 hours of LPS priming, concentrations of test compound in the range from […] were added 30 min prior to NLRP3 inflammasome pathway stimulation with Nigericin 3.75 μM or MSU 200 μg/mL for 3 h.
For IL-1p quantification, supernatants were analyzed using HTRF kit according to the manufacturer's instructions (Cisbio 62HIL1BPEH). Briefly, in a 384-well ProxiPlate™ microplate, 8 μl of sample was mixed, with 5 μl of Anti-IL1β Cryptate antibody (40×) and Anti-IL1β XL antibody (40×). Then, incubated overnight at RT. Reading was done using an EnVision Reader (PerkinElmer).
IC50 (concentration corresponding to 50% inhibition) were determined using GraphPad Prism 9.

With `COc1nc2nc(-c3ccc(C(F)(F)F)cc3O)n(C)c2cc1CO` [Example 51, 2-(6-(hydroxymethyl)-5-methoxy-1-methyl-1H-imidazo[4,5-b]pyridin-2-yl)-5-(trifluoromethyl)phenol] as the compound, how does the IC50 read?
The IC50 was under 100 nM.

Which IC50 does the source give for `Cn1c(-c2ccc(C(F)(F)F)cc2O)nc2nc(O[C@H]3CC[C@H](O)C3)ccc21` (single isomer, unassigned) [Example 37A, trans-2-(5-((3-hydroxycyclopentyl)oxy)-1-methyl-1H-imidazo[4,5-b]pyridin-2-yl)-5-(trifluoromethyl)phenol] here?
The IC50 was 100 to 1000 nM.

`Cc1cc(Cl)cc(O)c1-c1nc2nc(C(F)(F)F)ccc2n1C` [Examples 50] was tested. Which IC50 did it give?
The IC50 was 100 to 1000 nM.

Which IC50 does the source give for `Cn1c(-c2ccc(C(F)(F)F)cc2O)nc2nc(NCC(C)(C)O)ccc21` [Example 5, 2-(5-((2-hydroxy-2-methylpropyl)amino)-1-methyl-1H-imidazo[4,5-b]pyridin-2-yl)-5-(trifluoromethyl)phenol] here?
The IC50 was 100 to 1000 nM.

With `Oc1cc(C(F)(F)F)ccc1-n1cc2ccc(OC(F)(F)F)nc2n1` [Example 45, 2-[6-(trifluoromethoxy)pyrazolo[3,4-b]pyridin-2-yl]-5-(trifluoromethyl)phenol] as the compound, how does the IC50 read?
The IC50 was 100 to 1000 nM.

How did the IC50 turn out when `CN1CC[C@@H](Oc2ccc3c(n2)nc(-c2ccc(C(F)(F)F)cc2O)n3C)C1` [Example 27, (R)-2-(1-methyl-5-((1-methylpyrrolidin-3-yl)oxy)-1H-imidazo[4,5-b]pyridin-2-yl)-5-(trifluoromethyl)phenol] was run?
The IC50 was under 100 nM.

How did the IC50 turn out when `Cc1cc(C(F)(F)F)cc(O)c1-c1nc2nc(N3CC(N(C)C)C3)cnc2n1C` [Example 71, 2-(5-(3-(dimethylamino)azetidin-1-yl)-1-methyl-1H-imidazo[4,5-b]pyrazin-2-yl)-3-methyl-5-(trifluoromethyl)phenol] was run?
The IC50 was 100 to 1000 nM.

Which IC50 does the source give for `Cn1c(-c2ccc(C(F)(F)F)cc2O)nc2nc(NCC3(O)COC3)ccc21` [Example 54, 3-(((2-(2-hydroxy-4-(trifluoromethyl)phenyl)-1-methyl-1H-imidazo[4,5-b]pyridin-5-yl)amino)methyl)oxetan-3-ol] here?
The IC50 was 100 to 1000 nM.

How did the IC50 turn out when `Cc1cc(C(F)(F)F)cc(O)c1-c1nc2nc(O[C@@H]3CCN(C)C3)ccc2n1C` [Example 28, (R)-3-methyl-2-(1-methyl-5-((1-methylpyrrolidin-3-yl)oxy)-1H-imidazo[4,5-b]pyridin-2-yl)-5-(trifluoromethyl)phenol] was run?
The IC50 was under 100 nM.

How did the IC50 turn out when `Cc1cc(C(F)(F)F)cc(O)c1-c1nc2nc(N3CCOCC3)ccc2n1C` [Example 79, 3-methyl-2-(1-methyl-5-morpholino-imidazo[4,5-b]pyridin-2-yl)-5-(trifluoromethyl)phenol] was run?
Its IC50 is under 100 nM.

With `CNc1ccc2c(n1)nc(-c1ccc(C(F)(F)F)cc1O)n2C` [Example 4, 2-(1-methyl-5-(methylamino)-1H-imidazo[4,5-b]pyridin-2-yl)-5-(trifluoromethyl)phenol] as the compound, how does the IC50 read?
Its IC50 is 100 to 1000 nM.

For `CC(C)n1c(-c2ccc(C(F)(F)F)cc2O)nc2nc(N[C@@H]3CCCN(C)C3)ccc21` [Example 13, (R)-2-(1-isopropyl-5-((1-methylpiperidin-3-yl)amino)-1H-imidazo[4,5-b]pyridin-2-yl)-5-(trifluoromethyl)phenol], which IC50 is on record?
The IC50 was 100 to 1000 nM.

How did the IC50 turn out when `Cc1cc(Cl)cc(O)c1-c1nc2nc(N[C@@H]3CCN(C)C3)c(F)cc2n1C` [Example 47, (R)-5-chloro-2-(6-fluoro-1-methyl-5-((1-methylpyrrolidin-3-yl)amino)-1H-imidazo[4,5-b]pyridin-2-yl)-3-methylphenol formate Salt] was run?
The IC50 was under 100 nM.

How did the IC50 turn out when `Cc1cc(C(F)(F)F)cc(O)c1-c1nc2nc(N3CCOCC3)cnc2n1C` [Example 61, 3-methyl-2-(1-methyl-5-morpholino-1H-imidazo[4,5-b]pyrazin-2-yl)-5-(trifluoromethyl)phenol] was run?
The IC50 was under 100 nM.

How did the IC50 turn out when `Cc1cc(Cl)cc(O)c1-c1nc2nc(N3CCC(C)(O)CC3)cnc2n1C` [Example 80, 1-[2-(4-chloro-2-hydroxy-6-methyl-phenyl)-1-methyl-imidazo[4,5-b]pyrazin-5-yl]-4-methyl-piperidin-4-ol] was run?
Its IC50 is under 100 nM.

`Cc1cc(Cl)cc(O)c1-c1nc2nc(N3CCN(C)CC3)cnc2n1C` [Example 69, 5-chloro-3-methyl-2-(1-methyl-5-(4-methylpiperazin-1-yl)-1H-imidazo[4,5-b]pyrazin-2-yl)phenol] was tested. Which IC50 did it give?
The IC50 was 100 to 1000 nM.

With `Cn1c(-c2ccc(C(F)(F)F)cc2O)nc2nc(NCCO)ccc21` [Example 1, 2-(5-((2-hydroxyethyl)amino)-1-methyl-1H-imidazo[4,5-b]pyridin-2-yl)-5-(trifluoromethyl)phenol] as the compound, how does the IC50 read?
The IC50 was 100 to 1000 nM.

With `CN1CCC[C@@H](Nc2ccc3cn(-c4ccc(Cl)cc4O)nc3n2)C1` [Example 43, (R)-5-chloro-2-(6-((1-methylpiperidin-3-yl)amino)-2H-pyrazolo[3,4-b]pyridin-2-yl)phenol] as the compound, how does the IC50 read?
The IC50 was under 100 nM.

With `Cc1cc(Cl)cc(O)c1-c1nc2nc(N3CCC(C)(O)C3)cnc2n1C` (single isomer, unassigned) [Example 86A] as the compound, how does the IC50 read?
Its IC50 is under 100 nM.

With `CCn1c(-c2ccc(C(F)(F)F)cc2O)nc2nc(NC)ccc21` [Example 14, 2-(1-ethyl-5-(methylamino)-1H-imidazo[4,5-b]pyridin-2-yl)-5-(trifluoromethyl)phenol] as the compound, how does the IC50 read?
The IC50 was 100 to 1000 nM.

How did the IC50 turn out when `Cc1cc(Cl)cc(O)c1-c1nc2nc(NC3CCC(F)(F)C3)ccc2n1C` (racemic) [Example 11, 5-chloro-2-(5-((3,3-difluorocyclopentyl)amino)-1-methyl-1H-imidazo[4,5-b]pyridin-2-yl)-3-methylphenol] was run?
Its IC50 is 100 to 1000 nM.

Which IC50 does the source give for `Cc1cc(Cl)cc(O)c1-c1nc2nc(OCC(F)(F)F)ccc2n1C` [Example 38, 5-chloro-3-methyl-2-(1-methyl-5-(2,2,2-trifluoroethoxy)-1H-imidazo[45-b]pyridin-2-yl)phenol] here?
Its IC50 is 100 to 1000 nM.

For `CCn1c(-c2ccc(C(F)(F)F)cc2O)nc2nc(N[C@@H]3CCCN(C)C3)ccc21` [Example 12, (R)-2-(1-ethyl-5-((1-methylpiperidin-3-yl)amino)-1H-imidazo[4,5-b]pyridin-2-yl)-5-(trifluoromethyl)phenol], which IC50 is on record?
Its IC50 is 100 to 1000 nM.

Which IC50 does the source give for `COc1cnc2c(n1)nc(-c1c(C)cc(C(F)(F)F)cc1O)n2C` [Example 56, 2-(5-methoxy-1-methyl-1H-imidazo[4,5-b]pyrazin-2-yl)-3-methyl-5-(trifluoromethyl)phenol] here?
The IC50 was under 100 nM.

Which IC50 does the source give for `CNc1ccc2c(n1)nc(-c1c(C)cc(C(F)(F)F)cc1O)n2C(C)C` [Example 15, 2-(1-isopropyl-5-(methylamino)-1H-imidazo[4,5-b]pyridin-2-yl)-3-methyl-5-(trifluoromethyl)phenol] here?
Its IC50 is 100 to 1000 nM.

With `COc1cnc2c(n1)nc(-c1c(C)cc(Cl)cc1O)n2C` [Example 59, 5-chloro-2-(5-methoxy-1-methyl-imidazo[4,5-b]pyrazin-2-yl)-3-methyl-phenol formate Salt] as the compound, how does the IC50 read?
Its IC50 is under 100 nM.

`COc1nc2nc(-c3c(C)cc(C(F)(F)F)cc3O)n(C)c2cc1CO` [Example 52, 2-(6-(hydroxymethyl)-5-methoxy-1-methyl-1H-imidazo[4,5-b]pyridin-2-yl)-3-methyl-5-(trifluoromethyl)phenol] was tested. Which IC50 did it give?
Its IC50 is under 100 nM.

`COc1nc2nc(-c3c(C)cc(Cl)cc3O)n(C)c2cc1CO` [Example 70, 5-chloro-2-[6-(hydroxymethyl)-5-methoxy-1-methyl-imidazo[4,5-b]pyridin-2-yl]-3-methyl-Phenol] was tested. Which IC50 did it give?
The IC50 was under 100 nM.

How did the IC50 turn out when `Cc1cc(Cl)cc(O)c1-c1nc2nc(N3CCOCC3)c(F)cc2n1C` [Example 64, 5-chloro-2-(6-fluoro-1-methyl-5-morpholino-1H-imidazo[4,5-b]pyridin-2-yl)-3-methylphenol] was run?
Its IC50 is 100 to 1000 nM.

Same assay, conditions: Homo sapiens, 3 h, Table 8 (formula II′/II vs formula III); MSU 200 μg/mL for 3 h; IL-1β release; read-out: IC50 Human monocyte-like cells MSU

`Cn1c(NCCO)nc2nc(-c3ccc(C(F)(F)F)cc3O)ccc21` [Example 82, 2-(2-((2-hydroxyethyl)amino)-1-methyl-1H-imidazo[4,5-b]pyridin-5-yl)-5-(trifluoro-methyl)phenol] was tested. Which IC50 did it give?
Its IC50 is over 1500 nM.

`Cn1c(-c2ccc(C(F)(F)F)cc2O)nc2nc(NCCO)ccc21` [Example 1, 2-(5-((2-hydroxyethyl)amino)-1-methyl-1H-imidazo[4,5-b]pyridin-2-yl)-5-(trifluoromethyl)phenol] was tested. Which IC50 did it give?
The IC50 was 100 to 500 nM.

Which IC50 does the source give for `CN1CCC[C@@H](Nc2nc3nc(-c4ccc(C(F)(F)F)cc4O)ccc3n2C)C1` [Example 83, (R)-2-(1-methyl-2-((1-methylpiperidin-3-yl)amino)-1H-imidazo[4,5-b]pyridin-5-yl)-5-(trifluoromethyl)phenol] here?
Its IC50 is over 1500 nM.

Same assay, conditions: Homo sapiens, 3 h, read-out: IC50 Human monocyte-like cells MSU

With `Cc1cc(Cl)cc(O)c1-c1nc2nc(OC3CC(F)(F)C3)ccc2n1C` [Example 39, 5-chloro-2-(5-(3,3-difluorocyclobutoxy)-1-methyl-1H-imidazo[4,5-b]pyridin-2-yl)-3-methylphenol] as the compound, how does the IC50 read?
The IC50 was 100 to 1000 nM.

Same assay, conditions: Table 7; PMA-differentiated, LPS-primed cells; MSU 200 μg/mL for 3 h; IL-1β release; read-out: IC50 Human monocyte-like cells MSU

With `Cc1cc(Cl)cc(O)c1-c1nc2nc(N3CCC(O)C3)cnc2n1C` (single isomer, unassigned) [Example 85B] as the compound, how does the IC50 read?
Its IC50 is under 100 nM.

With `Cc1cc(Cl)cc(O)c1-c1nc2nc(N3CC[C@@H]4CCN(C)C[C@@H]43)cnc2n1C` (relative stereo) [Example 77B, 5-chloro-3-methyl-2-[1-methyl-5-[rel-(3aS,7aR)-6-methyl-3,3a,4,5,7,7a-hexahydro-2H-pyrrolo[2,3-c]pyridin-1-yl]imidazo[4,5-b]pyrazin-2-yl]phenol] as the compound, how does the IC50 read?
Its IC50 is under 100 nM.
